Reference: patent US5254727A, “Acyclic tricarboxylic acid compounds” (Merck & Co., Inc., priority 1992, dated 1993)

Columns and labels:
[1] = molecular target: T1, squalene synthetase from human HEPG2 cells (Homo sapiens, UniProt P37268); assay: Squalene synthetase assay using HepG2 cell enzyme; format: biochemical; conditions: 3 μM 3H-farnesyl pyrophosphate, 30° C., 20 min
T1 construct: The resulting pellet from the 34,000 rpm centrifugation, containing the squalene synthetase, was resuspended in 5 mL of enzyme suspension buffer; endogenous in cells; host or cells: HepG2 cells (ATCC HB 8065), pellet of the 34,000 rpm centrifugation (microsomal)
T1 sequence (P37268 1-417): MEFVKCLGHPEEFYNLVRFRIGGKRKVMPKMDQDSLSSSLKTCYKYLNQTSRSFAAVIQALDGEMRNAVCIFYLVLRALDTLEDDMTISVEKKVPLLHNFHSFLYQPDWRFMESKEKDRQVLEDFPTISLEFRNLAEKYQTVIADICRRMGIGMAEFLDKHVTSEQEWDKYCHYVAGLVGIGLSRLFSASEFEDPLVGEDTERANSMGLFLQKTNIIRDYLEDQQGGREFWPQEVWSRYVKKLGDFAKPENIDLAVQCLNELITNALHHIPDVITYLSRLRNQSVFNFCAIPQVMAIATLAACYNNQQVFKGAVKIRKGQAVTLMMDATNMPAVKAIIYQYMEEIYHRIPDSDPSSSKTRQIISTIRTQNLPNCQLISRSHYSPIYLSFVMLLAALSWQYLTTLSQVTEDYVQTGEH
Protocol: A. SQUALENE SYNTHETASE ASSAY USING HEPG2 CELL ENZYME
1. Preparation of Human HepG2 Cell Enzyme
Source: HEPG2 CELL LINE (Liver, hepatoblastoma, Human) ATCC No. HB 8065
Cell Growth and Maintenance: Culture Medium: Minimum essential medium (MEM) with non-essential amino acids, sodium pyruvate, and 10% fetal bovine serum. The medium was changed twice weekly. A confluent monolayer was acheived in 1 week. The growth medium was prepared as listed below.
Subculture Procedure: The medium was removed and washed with PBS (Phosphate-Buffered Saline 15.6 mM, pH 7.0). Fresh trypsin (0.25%)-EDTA (0.02%) with Hank's Balanced Salt solution was added and the flask was allowed to stand for a minute before the trypsin solution was removed. The flask was incubated at 37° C. until cells detached. Fresh medium was added and the cells were dispersed and dispensed into new flasks. Subcultivation ratio: 1:6.
Preparation of Delipidated Serum: Fetal calf serum (100 ml) and CAB-O-Sil (2 grams) were stirred overnight at 4° C. and centrifuged at 16,000 rpm for 5 hrs. […]
Harvest: The medium was removed and the cells were washed with PBS. […] Cells were counted (2.5×10^9 yield from 18 flasks (75 cm^2)), and resuspended in 10 mL of 50 mM HEPES (N-[2-Hydroxyethyl]piperazine-N'-[2-ethane-sulfonic acid]) containing 5 mM MgCl2, 2 mM MnCl2, 10 mM DTT (dithiothreitol), pH 7.5 (enzyme suspension buffer). […]

[2] = molecular target: T2, squalene synthetase, rat liver microsomes (Rattus norvegicus, UniProt Q02769); assay: Squalene synthetase assay using rat liver enzyme; format: biochemical; conditions: rat liver microsomal enzyme, [4-14C]farnesyl pyrophosphate, 30° C., 20 min
T2 construct: from tissue; host or cells: liver microsomes of male Charles River CD rats fed 0.1% lovastatin
T2 sequence (Q02769 1-416): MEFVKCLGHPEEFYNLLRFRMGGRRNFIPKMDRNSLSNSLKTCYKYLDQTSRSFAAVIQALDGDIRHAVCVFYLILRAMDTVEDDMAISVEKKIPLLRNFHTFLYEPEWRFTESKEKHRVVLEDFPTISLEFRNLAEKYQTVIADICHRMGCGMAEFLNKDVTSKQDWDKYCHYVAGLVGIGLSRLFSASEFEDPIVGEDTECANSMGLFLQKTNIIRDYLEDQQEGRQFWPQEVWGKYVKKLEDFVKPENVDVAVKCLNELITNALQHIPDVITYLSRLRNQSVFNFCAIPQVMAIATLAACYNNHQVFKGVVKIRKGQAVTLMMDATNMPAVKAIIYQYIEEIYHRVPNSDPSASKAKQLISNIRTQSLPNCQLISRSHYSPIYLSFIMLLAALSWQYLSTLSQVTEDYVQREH
Protocol: B. SQUALENE SYNTHETASE ASSAY USING RAT LIVER ENZYME
Preparation of Rat Liver Microsomes: Male, Charles River CD rats (120 to 150 g) were fed a diet containing 0.1% lovastatin for 4 days. The livers from these rats were homogenized in 5 volumes (ml/g) of ice cold 50 mM HEPES (4-(2-hydroxyethyl)-1-piperazine-ethanesulfonic acid), 5 mM EDTA(ethylenediaminetetra-acetic acid) pH 7.5 with a Potter-Elvehjem type tissue grinder. The homogenate was centrifuged twice at 20,000×g for 15 minutes at 4° C., discarding the pellet each time. The supernatant was then centrifuged at 100,000×g for 1 hour at 4° C. The resulting microsomal pellet was resuspended in a volume of the above homogenizing buffer equal to one-fifth the volume of the original homogenate. This microsomal preparation has a protein concentration of about 7 mg/ml. The microsomal suspensions were stored in aliquots at -70° C. Squalene synthetase activity in these aliquots is stable for at least several months.
Partial Purification of Prenyl Transferase: Prenyl transferase was purified to use in the enzymatic synthesis of radiolabelled farnesyl pyrophosphate [FPP]. Prenyl transferase was assayed by the method of Rilling (Methods in Enzymology 110, 125-129 (1985)) and a unit of activity is defined as the amount of enzyme that will produce 1 μmole of farnesyl pyrophosphate per minute at 30° C. in the standard assay. […]

SMILES: CC(C/C=C/c1ccccc1)CC(C)CCCCCC(C(=O)O)C(O)(CC(=O)O)C(=O)O (centres unmarked) [Compound IA]
- IC50 [1]: ~145 nM
- IC50 [2]: 767 nM
